Test results published in patent US20220362245A1, “COMPOUNDS FOR INHIBITING FGFR4” (Terns Pharmaceuticals, Inc., priority 2019, published 2022).

How the values were obtained:
FGFR1 = FGFR1 (Homo sapiens, UniProt P11362); experiment: FGFR inhibition assay (33P-ATP radiometric kinase assay), FGFR1; type: biochemical; settings: 20 μM KKKSPGEYVNIEFG peptide substrate, 10 μM final ATP, 2 hours at room temperature
Method: (§1) The potency of test compounds in inhibiting FGFR1 and FGFR4 was determined. 20 μM of [KKKSPGEYVNIEFG] peptide substrate was added to the reaction buffer (20 mM 4-(2-hydroxyethyl)-1-piperazineethanesulfonic acid (HEPES) (pH 7.5), 10 mM MgCl2, 1 mM egtazic acid (EGTA), 0.02% BRIJ®-35, 0.02 mg/ml bovine serum albumin (BSA), 0.1 mM Na3VO4, 2 mM dithiothreitol (DTT), and 1% DMSO) for FGFR1. 0.2 mg/mL of poly[Glu:Tyr] (4:1) peptide substrate was added to the reaction buffer (20 mM 4-(2-hydroxyethyl)-1-piperazineethanesulfonic acid (HEPES) (pH 7.5), 10 mM MgC12, 1 mM egtazic acid (EGTA), 0.02% BRIJ®-35, 0.02 mg/ml bovine serum albumin (BSA), 0.1 mM Na3VO4, 2 mM dithiothreitol (DTT), and 1% DMSO) for FGFR4. Next, FGFR1 or FGFR4 was added to the substrate solution and gently mixed.
(§2) Test compounds were dissolved in 100% dimethyl sulphoxide (DMSO) and then three-fold serially diluted in DMSO using an epMotion® 5070 robotic pipettor. The diluted test compounds, from 0.00001 M to 5.08053E-10 M, were added to corresponding substrate solutions, and the resulting substrate/compound solutions were incubated for 20 min at room temperature. Radioactive ATP (^33P-ATP) was added to each substrate/compound solution to initiate the kinase activity of FGFR1 or FGFR4 and were incubated for 2 hours at room temperature (10 μM final [ATP]). Reactions were spotted onto P81 ion exchange paper, washed to remove excess radiolabeled ATP and kinase activity determined by quantification of radioactive spots.
(§3) The half maximal inhibitory concentration (IC50) values for FGFR1 and FGFR4 were determined for each compound assayed and are shown in Table 2.

FGFR4 = FGFR4 (Homo sapiens, UniProt P22455); experiment: FGFR inhibition assay (33P-ATP radiometric kinase assay), FGFR4; type: biochemical; settings: for IC50: 0.2 mg/mL poly[Glu:Tyr] (4:1) substrate, 10 μM final ATP, 2 hours at room temperature; for inhibition of FGFR4 compared with FGFR1 (selectivity): concentration inhibiting FGFR4 versus concentration inhibiting FGFR1, from Table 2 IC50 values
Method: as §1, §2, §3

FGFR1, sequence (P11362 22-822): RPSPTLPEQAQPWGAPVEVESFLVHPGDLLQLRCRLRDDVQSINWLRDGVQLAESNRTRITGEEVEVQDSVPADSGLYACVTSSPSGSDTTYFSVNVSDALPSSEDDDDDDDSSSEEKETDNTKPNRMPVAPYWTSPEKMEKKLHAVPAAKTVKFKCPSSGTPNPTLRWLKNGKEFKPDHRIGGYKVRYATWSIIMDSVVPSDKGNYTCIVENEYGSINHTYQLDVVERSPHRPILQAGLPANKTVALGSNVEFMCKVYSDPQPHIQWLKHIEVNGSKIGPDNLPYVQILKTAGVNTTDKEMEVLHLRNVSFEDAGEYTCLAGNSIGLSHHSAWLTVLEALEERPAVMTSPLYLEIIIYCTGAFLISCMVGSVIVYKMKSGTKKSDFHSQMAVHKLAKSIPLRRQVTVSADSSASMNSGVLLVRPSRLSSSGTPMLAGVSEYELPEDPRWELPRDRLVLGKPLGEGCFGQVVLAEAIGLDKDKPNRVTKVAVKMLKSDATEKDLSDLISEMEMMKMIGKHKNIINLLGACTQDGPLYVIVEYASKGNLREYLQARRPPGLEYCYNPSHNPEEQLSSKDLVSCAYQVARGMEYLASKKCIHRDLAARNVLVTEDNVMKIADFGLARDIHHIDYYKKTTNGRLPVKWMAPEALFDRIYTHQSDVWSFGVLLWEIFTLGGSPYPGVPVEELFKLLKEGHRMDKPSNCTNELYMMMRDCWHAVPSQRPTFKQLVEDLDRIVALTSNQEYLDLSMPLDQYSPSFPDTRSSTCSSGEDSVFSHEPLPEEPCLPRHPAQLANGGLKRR
FGFR4, sequence (P22455 22-802): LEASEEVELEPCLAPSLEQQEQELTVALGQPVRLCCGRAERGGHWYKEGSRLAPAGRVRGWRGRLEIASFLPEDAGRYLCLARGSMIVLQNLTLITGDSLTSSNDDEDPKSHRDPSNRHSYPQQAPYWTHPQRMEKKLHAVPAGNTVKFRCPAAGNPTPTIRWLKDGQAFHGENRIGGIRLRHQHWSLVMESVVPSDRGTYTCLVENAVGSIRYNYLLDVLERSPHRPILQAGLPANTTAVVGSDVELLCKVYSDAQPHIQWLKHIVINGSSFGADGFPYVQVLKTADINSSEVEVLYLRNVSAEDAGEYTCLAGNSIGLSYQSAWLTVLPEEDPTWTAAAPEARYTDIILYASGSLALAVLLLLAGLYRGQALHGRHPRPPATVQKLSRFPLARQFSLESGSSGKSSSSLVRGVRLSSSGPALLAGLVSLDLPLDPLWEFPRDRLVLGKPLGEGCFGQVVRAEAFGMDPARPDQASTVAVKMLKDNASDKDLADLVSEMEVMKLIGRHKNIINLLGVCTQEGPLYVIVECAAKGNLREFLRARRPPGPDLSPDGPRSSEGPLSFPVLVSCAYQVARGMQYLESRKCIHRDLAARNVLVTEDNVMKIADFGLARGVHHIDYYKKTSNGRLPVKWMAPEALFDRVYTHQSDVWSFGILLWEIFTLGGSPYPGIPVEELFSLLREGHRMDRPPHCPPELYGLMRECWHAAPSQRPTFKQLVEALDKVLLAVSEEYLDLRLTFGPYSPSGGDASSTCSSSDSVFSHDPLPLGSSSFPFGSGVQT

Row | SMILES | IC50 (FGFR1) | IC50 (FGFR4) | inhibition of FGFR4 compared with FGFR1 (selectivity) (FGFR4)
1 | COc1cc(OC)c(F)c(COc2ccc(NC(=O)N3CCCc4ccc(C=O)nc43)nc2)c1F [Example 2, N-(5-((2,6-difluoro-3,5-dimethoxybenzyl)oxy)pyridin-2-yl)-7-formyl-3,4-dihydro-1,8-naphthyridine-1(2H)-carboxamide] | > 10000 nM | 5.9 nM | dramatically lower concentration
2 | COc1cc(OC)c(F)c(COc2cnc(NC(=O)N3CCCc4c(C)cc(C=O)nc43)nc2)c1F [Example 5, N-(5-((2,6-difluoro-3,5-dimethoxybenzyl)oxy)pyrimidin-2-yl)-7-formyl-5-methyl-3,4-dihydro-1,8-naphthyridine-1(2H)-carboxamide] | 130 nM | 1.9 nM | 
3 | COc1cc(OC)c(F)c(CCc2cnc(NC(=O)N3CCCc4ccc(C=O)nc43)nc2)c1F [Example 6, N-(5-(2,6-difluoro-3,5-dimethoxyphenethyl)pyrimidin-2-yl)-7-formyl-3,4-dihydro-1,8-naphthyridine-1(2H)-carboxamide] | 63 nM | 1 nM | 
4 | COc1cc(OC)c(F)c(/C=C/c2cnc(NC(=O)N3CCCc4ccc(C=O)nc43)nc2)c1F [Example 7, (E)-N-(5-(2,6-difluoro-3,5-dimethoxystyryl)pyrimidin-2-yl)-7-formyl-3,4-dihydro-1,8-naphthyridine-1(2H)-carboxamide] | 1000 nM | 0.9 nM | 
5 | COc1cc(OC)c(F)c(C#Cc2cnc(NC(=O)N3CCCc4ccc(C=O)nc43)nc2)c1F [Example 8, N-(5-((2,6-difluoro-3,5-dimethoxyphenyl)ethynyl)pyrimidin-2-yl)-7-formyl-3,4-dihydro-1,8-naphthyridine-1(211)-carboxamide] | 330 nM | 2.5 nM | 

Further lines, results first:

Row | IC50 (FGFR1) | IC50 (FGFR4) | inhibition of FGFR4 compared with FGFR1 (selectivity) (FGFR4) | SMILES
6 | 5600 nM | 0.8 nM | dramatically lower concentration | COc1cc(OC)c(F)c(COc2cnc(NC(=O)N3CCCc4ccc(C=O)nc43)nc2)c1F [Example 1, N-(5-((2,6-difluoro-3,5-dimethoxybenzyl)oxy)pyrimidin-2-yl)-7-formyl-3,4-dihydro-1,8-naphthyridine-1(2H)-carboxamide]
7 | 140 nM | < 0.5 nM |  | COc1cc(OC)c(F)c(COc2cnc(NC(=O)N3CCCc4cc(CN5CCN(C)CC5=O)c(C=O)nc43)nc2)c1F [Example 3, N-(5-((2,6-difluoro-3,5-dimethoxybenzyl)oxy)pyrimidin-2-yl)-7-formyl-6-((4-methyl-2-oxopiperazin-1-yl)methyl)-3,4-dihydro-1,8-naphthyridine-1(2H)-carboxamide]
